Measurements published in ChEMBL document CHEMBL3611981, “Discovery of potent nitrotriazole-based antitrypanosomal agents: In vitro and in vivo evaluation” (Bioorg Med Chem, 2015).
pIC50: −log10 of the molar value. Active and inactive are the calls of the source. The rule behind the calls is not given here.

What was measured:
[1] = Half life in human microsomes at 1 uM in absence of NADPH
[2] = Half life in human microsomes at 1 uM in presence of NADPH
[3] = tested on: Trypanosoma brucei rhodesiense; test: Antiparasitic activity against trypomastigote stage of Trypanosoma brucei rhodesiense STIB 900 assessed as parasite growth inhibition after 72 hrs by Alamar blue assay; format: functional, organism-based; conditions: STIB 900, 72 h
Trypanosoma cruzi [4] = test: Antiparasitic activity against amastigote stage of Trypanosoma cruzi Tulahuen C4 infected in rat L6 cells assessed as parasite growth inhibition after 96 hrs by beta-galactosidase reporter gene assay; format: functional, organism-based; conditions: Tulahuen C4, L6, 96 h
[5] = Selectivity index, ratio of IC50 for rat L6 cells to IC50 for amastigote stage of Trypanosoma cruzi Tulahuen C4 infected in rat L6 cells
Leishmania donovani [6] = test: Antiparasitic activity against axenic amastigote stage of Leishmania donovani MHOM-ET-67/L82 assessed as parasite growth inhibition after 72 hrs by Alamar blue assay; format: functional, organism-based; conditions: MHOM-ET-67/L82, 72 h
[7] = Selectivity index, ratio of IC50 for rat L6 cells to IC50 for axenic amastigote stage of Leishmania donovani MHOM-ET-67/L82
L6 = test: Cytotoxicity against rat L6 cells assessed as growth inhibition after 72 hrs by Alamar blue assay; format: cell-based; conditions: L6, 72 h
[8] = Efflux ratio of apparent permeability across basolateral to apical side over apical to basolateral side in human Caco2 cells after 2 hrs; conditions: Caco-2
[9] = tested on: Trypanosoma brucei brucei; test: Antiparasitic activity against blood stream form of Trypanosoma brucei brucei overexpressing type-1 nitroreductase after 3 days by Alamar blue assay in absence of tetracycline; format: functional, organism-based; conditions: 72 h
[10] = tested on: Trypanosoma brucei brucei; test: Antiparasitic activity against blood stream form of Trypanosoma brucei brucei overexpressing type-1 nitroreductase after 3 days by Alamar blue assay in presence of tetracycline; format: functional, organism-based; conditions: 72 h
[11] = tested on: Trypanosoma brucei brucei; test: Ratio of IC50 for blood stream form of Trypanosoma brucei brucei overexpressing type-1 nitroreductase in absence of tetracycline to IC50 for blood stream form of Trypanosoma brucei brucei overexpressing type-1 nitroreductase in presence of tetracycline; format: functional
[12] = Selectivity index, ratio of IC50 for rat L6 cells to IC50 for trypomastigote stage of Trypanosoma brucei rhodesiense STIB 900
Trypanosoma cruzi [13] = test: Potency index, ratio of benznidazole IC50 to compound IC50 for amastigote stage of Trypanosoma cruzi Tulahuen C4 infected in rat L6 cells; format: functional
Leishmania donovani [14] = test: Antileishmanial activity against amastigote stage of Leishmania donovani infected in mouse peritoneal macrophages assessed as reduction in parasite burden after 96 hrs by Giemsa staining method; format: functional, organism-based
[15] = Cytotoxicity against mouse peritoneal macrophages; format: cell-based; conditions: Peritoneal macrophage cell
Leishmania donovani [16] = test: Potency index, ratio of miltefosine IC50 to compound IC50 for axenic amastigote stage of Leishmania donovani MHOM-ET-67/L82; format: functional
[17] = Prodrug conversion assessed as Trypanosoma brucei recombinant His-tagged type-1 nitroreductase-mediated drug metabolism by measuring NADH oxidation after 5 mins by spectrophotometric analysis; format: ADME; conditions: isolated protein
[18] = Prodrug conversion assessed as Trypanosoma cruzi recombinant type-1 nitroreductase-mediated drug metabolism by measuring NADH oxidation after 5 mins by spectrophotometric analysis; format: ADME; conditions: isolated protein
[19] = tested on: Trypanosoma brucei brucei; test: Antiparasitic activity against wild type blood stream form of Trypanosoma brucei brucei after 3 days by Alamar blue assay; format: functional, organism-based; conditions: 72 h
Trypanosoma cruzi [20] = test: Antichagasic activity against trypomastigote stage of Trypanosoma cruzi Brazil infected in Balb/c mouse assessed as reduction in parasite load at 13 mg/kg/day, ip measured after 5 days by luciferase reporter gene assay; format: functional, organism-based
Mus musculus = test: Toxicity in Balb/c mouse at 13 mg/kg/day, ip; format: organism-based; conditions: in vivo

Structure (SMILES)	pIC50 [3]	pIC50 (Trypanosoma cruzi [4])	selectivity ratio [5]	pIC50 (Leishmania donovani [6])	selectivity ratio [7]	pIC50 (L6)	pIC50 [9]	pIC50 [10]	Ratio IC50 [11]	selectivity ratio [12]	Ratio IC50 (Trypanosoma cruzi [13])	pIC50 (Leishmania donovani [14])	pIC50 [15]	Ratio IC50 (Leishmania donovani [16])	Drug metabolism [17] [nmol/min/mg]	Drug metabolism [18] [nmol/min/mg]	other results
COc1ccc2c(c1)[C@]13CCCC[C@@H]1[C@H](C2)N(C)CC3 [DEXTROMETHORPHAN]	–	–	–	–	–	–	–	–	–	–	–	–	–	–	–	–	half-life at 1 µM [1]: 2.57 h; half-life at 1 µM [2]: 1.54 h
O=C(Cn1cncn1)Nc1ccc(Oc2ccc(Cl)cc2)cc1	4.59	4.74	7.5	4.54	5	3.86	–	–	–	–	–	–	–	–	–	–	–
CC(C)NCC(O)COc1ccc(CC(N)=O)cc1 (centres undefined) [ATENOLOL]	–	–	–	–	–	–	–	–	–	–	–	–	–	–	–	–	efflux ratio at 2 h [8]: 3.7
CC1CS(=O)(=O)CCN1/N=C/c1ccc([N+](=O)[O-])o1 (centres undefined) [NIFURTIMOX]	–	–	–	–	–	–	5.36	6.37	10.3	–	–	–	–	–	–	–	–
O=C(Cn1ccnc1[N+](=O)[O-])Nc1ccc(Oc2ccc(F)cc2)cc1	4.89	5.48	37	6.54	418	3.91	–	–	–	9	0.61	4.85	< 4.08	0.55	–	–	–
O=C(Cn1ccnc1[N+](=O)[O-])Nc1ccc(Oc2ccc(Cl)cc2)cc1	5.59	5.59	49	6.85	937	3.90	5.19	5.77	3.8	50	0.78	4.82	< 4.09	1.2	3337	817	pIC50 [19]: 5.33
O=C(Cn1cnc([N+](=O)[O-])n1)Nc1ccc(Oc2ccc(Cl)cc2)cc1	5.89	8.10	3620	7.47	853	4.54	5.23	5.93	5	22	254	< 4.57	4.10	4.8	2699	628	pIC50 [19]: 5.29; Activity (Trypanosoma cruzi [20]): Active; Activity (Mus musculus): Non-toxic
O=C(Cn1ccnc1[N+](=O)[O-])Nc1ccc(Oc2ccccc2)cc1	4.82	5.38	15	6.10	79	4.21	–	–	–	–	0.48	4.80	< 4.05	0.21	–	–	–
O=C(Cn1cnc([N+](=O)[O-])n1)NC1CCN(Cc2ccccc2)CC1	4.92	5.10	14	3.88	< 1	3.94	–	–	–	9.6	0.28	–	–	–	–	–	–
O=C(Cn1cnc([N+](=O)[O-])n1)Nc1ccc(Cc2ccccc2)cc1	5.68	7.17	528	5.92	31	4.44	–	–	–	17	34	< 4.52	< 4.05	0.12	–	–	–
O=C(Cn1cnc([N+](=O)[O-])n1)Nc1ccc(Oc2ccc(F)cc2)cc1	5.70	7.44	1950	6.74	384	4.15	5.44	6.11	4.8	35	56	< 4.55	4.08	0.89	2702	516	pIC50 [19]: 5.50; Activity (Trypanosoma cruzi [20]): Active; Activity (Mus musculus): Non-toxic
O=C(Cn1cnc([N+](=O)[O-])n1)Nc1ccc(-c2ccc(Cl)cc2)cc1	–	–	2800	6.77	738	–	6.16	6.07	0.8	140	45	< 4.08	< 4.08	0.95	2492	585	pIC50 [19]: 6.16; Activity (Trypanosoma cruzi [20]): Active; Activity (Mus musculus): Non-toxic
O=C(Cn1cnc([N+](=O)[O-])n1)Nc1nccc(-c2ccccc2)n1	3.86	5.60	66	< 3.51	–	3.77	–	–	–	1.2	0.8	–	–	–	–	–	–
O=C(Cn1cnc([N+](=O)[O-])n1)Nc1cccc(-c2ccccc2)c1	–	–	–	–	–	4.35	–	–	–	–	–	–	–	–	–	–	half-life at 1 µM [1]: 1.8 h; half-life at 1 µM [2]: 1.06 h
O=C(Cn1ccnc1[N+](=O)[O-])NCc1ccccc1 [BENZNIDAZOLE]	–	–	–	–	–	–	–	–	–	–	–	–	–	–	1540	680	Activity (Trypanosoma cruzi [20]): Active; Activity (Mus musculus): Non-toxic
O=C(Cn1cnc([N+](=O)[O-])n1)Nc1ccc(Oc2ccccc2)cc1	5.57	7.19	1420	6.57	339	4.04	5.63	5.86	1.7	34	31	< 4.52	4.05	0.6	2931	815	pIC50 [19]: 5.87
O=C(Cn1cnc([N+](=O)[O-])n1)Nc1cccc(OCc2ccccc2)c1	5.31	7.55	2420	5.47	20	4.17	–	–	–	14	17	–	–	–	–	–	–
CC(C)NCC(O)COc1cccc2ccccc12 (centres undefined) [PROPRANOLOL]	–	–	–	–	–	–	–	–	–	–	–	–	–	–	–	–	efflux ratio at 2 h [8]: 3.1
CCCCCCCCCCCCCCCCOP(=O)([O-])OCC[N+](C)(C)C [MILTEFOSINE]	–	–	–	–	–	–	–	–	–	–	–	5.16	–	–	–	–	–
